Biological target: c-AMP phosphodiesterase (erythrocytes)
Assay: Inhibition of cyclic AMP phosphodiesterase (erythrocytes)
Assay type: biochemical
Details: phosphodiesterase extracted from erythrocytes, phosphate buffer pH 7.4, radiochemical procedure
Experimental: The procedure used was that described by Arch, J. R. S. and Newsholme, E. A. in Biochem. J. 158, 603, (1976):
Erythrocytes were obtained from Na-citrate (16 mM; 0.1 ml/ml blood) anticoagulated blood by repeated centrifugation with removal of the buff coat and washing with an isotonic buffer (composition in mM: NaCl […], KCl 4, CACl2.2 H2 O 1.8, Na2 HPO4.12 H2 O 0.8, NaH2 PO4 0.2, MgSO4.7 H2 O 0.7, Hepes 3.4; pH 7.4).
The phosphodiesterase was extracted by mixing the erythrocytes with 4 volumes of 7 mM phosphate buffer, pH 7.4, followed by sonification (3×10 sec; 100 W) and then centrifuging for 30 min at 4200 x g.
All supernatants were diluted in the extraction medium and assayed for phosphodiesterase activity within 6 hours of preparation, using the radiochemical procedure described in the above mentioned reference.

| SMILES | Ki [µM] |
| --- | --- |
| O=c1c2[nH]cnc2n(CC2CC2)c(=O)n1CC1CC1 [Example 1, 1,3-Di-cyclopropylmethyl xanthine] | 5.7 |
| O=c1c2[nH]cnc2n(CC2CCC2)c(=O)n1CC1CCC1 [Example 2, 1,3-Di-cyclobutylmethyl xanthine] | 2.2 |
| O=c1c2[nH]cnc2n(CC2CCCC2)c(=O)n1CC1CCCC1 [Example 3, 1,3-Di-cyclopentylmethyl xanthine] | 3.7 |
| O=c1c2[nH]cnc2n(CC2CCCCC2)c(=O)n1CC1CCCCC1 [Example 4, 1,3-Di-cyclohexylmethyl xanthine] | 1.7 |
| CC(=O)Cn1cnc2c1c(=O)n(CC1CC1)c(=O)n2CC1CC1 [Example 5, 1,3-Di-cyclopropylmethyl-7-(2-oxopropyl)-xanthine] | 1.4 |
| CC(=O)Cn1cnc2c1c(=O)n(CC1CCC1)c(=O)n2CC1CCC1 [Example 6, 1,3-Di-cyclobutylmethyl-7-(2-oxopropyl)-xanthine] | 0.15 |
| CC(=O)Cn1cnc2c1c(=O)n(CC1CCCC1)c(=O)n2CC1CCCC1 [Example 7, 1,3-Di-cyclopentylmethyl-7-(2-oxopropyl)-xanthine] | 1.3 |
| CC(=O)Cn1cnc2c1c(=O)n(CC1CCCCC1)c(=O)n2CC1CCCCC1 [Example 8, 1,3-Di-cyclohexylmethyl-7-(2-oxopropyl)-xanthine] | 2.3 |
| CC(O)Cn1cnc2c1c(=O)n(CC1CCCC1)c(=O)n2CC1CCCC1 (stereo not drawn) [Example 9, 1,3-Di-cyclopentylmethyl-7-(2-hydroxypropyl)-xanthine] | 26.6 |
| O=c1c2[nH]cnc2n(C2CCCCC2)c(=O)n1C1CCCCC1 [Example 10, 1,3-Di-cyclohexyl xanthine] | 0.8 |
| CC(=O)Cn1cnc2c1c(=O)n(C1CCCCC1)c(=O)n2C1CCCCC1 [Example 11, 1,3-Di-cyclohexyl-7-(2-oxopropyl)-xanthine] | 2.4 |
| CC(O)Cn1cnc2c1c(=O)n(CC1CCC1)c(=O)n2CC1CCC1 (stereo not drawn) [Example 12, 1,3-Di-cyclobutylmethyl-7-(2-hydroxypropyl)-xanthine] | 13.5 |
| O=c1c2[nH]cnc2n(C2CCC2)c(=O)n1C1CCC1 [Example 13, 1,3-Di-cyclobutyl-xanthine] | 1.7 |
| CCCn1cnc2c1c(=O)n(CC1CC1)c(=O)n2CC1CC1 [Example 14, 1,3-Di-cyclopropylmethyl-7-n-propyl xanthine] | 5.27 |
| CCCn1cnc2c1c(=O)n(CC1CCC1)c(=O)n2CC1CCC1 [Example 15, 1,3-Di-cyclobutylmethyl-7-n-propyl xanthine] | 2.4 |
| O=c1c2c(ncn2CC2CC2)n(CC2CC2)c(=O)n1CC1CC1 [Example 16, 1,3,7-Tri-cyclopropylmethyl-xanthine] | 2.3 |
| O=c1c2[nH]cnc2n(C2CCCC2)c(=O)n1CC1CC1 [Example 18, 1-(Cyclopropylmethyl)-3-cyclopentylxanthine] | 8.4 |
| CC(=O)Cn1cnc2c1c(=O)n(CC1CC1)c(=O)n2CC1CCCCC1 [Example 19, 1-(Cyclopropylmethyl)-3-(cyclohexylmethyl)-7-(2-oxopropyl)xanthine] | 2.3 |
| CC(=O)Cn1cnc2c1c(=O)n(CC1CC1)c(=O)n2C1CCCC1 [Example 20, 1-(Cyclopropylmethyl)-3-cyclopentyl-7-(2-oxopropyl)-xanthine] | 2 |
| O=c1c2[nH]cnc2n(CC2CCCCC2)c(=O)n1CC1CC1 [Example 22, 1-(Cyclopropylmethyl)-3-(cyclohexylmethyl)xanthine] | 23 |

Tested on: hippocampal CA1 field neuronal damage
Assay: Delayed neuronal death in gerbils after transient forebrain ischaemia
Assay type: in vivo, gerbil
Details: 5.0 mg/kg i.p.; conclusion in words
Experimental: Ischaemia was produced in adult male gerbils by occlusion of both common carotid arteries for 3 minutes under halothane/nitrous oxide anaesthesia. During surgery the animals were placed upon a warming blanket. The ischaemia led to neuronal degeneration and to disturbed brain function.
Brains were removed 2 weeks later and 12 μm thick coronal slices were examined light microscopically for neuronal degeneration.
Three groups of animals were used:
2. solvent-treated ligated controls
3. compound-treated ligated animals
The compound was administered 1 hour before the ligation period.
Means±SEM (n) of histopathological score [HPS] which reflects the degree of neuronal damage in the hippocampal CA1 field: […]

| SMILES | Prevention of ischaemia induced neuronal degeneration |
| --- | --- |
| O=c1c2[nH]cnc2n(CC2CC2)c(=O)n1CC1CC1 [Example 1, 1,3-Di-cyclopropylmethyl xanthine] | significantly prevented ischaemia induced neuronal degeneration |

From patent US5321029A, “Xanthines” (Beecham-Wuelfing GmbH & Co.K.G., priority 1988, dated 1994)
